Consider 2 molecules from article PMC9545004, “Transglutaminase 2 affinity and enzyme‐substrate intermediate stability as determining factors for T‐cell responses to gluten peptides in celiac disease” (European Journal of Immunology, 2022).

The structures appear in SMILES notation.

Data set [1] concerns TCR-transfectant cells specific for DQ2.5-glia-α2 or DQ2.5-glia-ω2. As to the kind of experiment: Inhibition by primary amines of gluten-specific T-cell stimulation via TG2-specific B cells, both epitopes. It counts as cell-based. To be noted: native α-gliadin 33-mer and ω-gliadin 34-mer, IL-2 production, Table S2, read-out: IC50, inhibition of T-cell stimulation (range). An excerpt:
(§1) Murine A20 B lymphoma cells engineered to express either the celiac patient‐derived TG2‐specific BCR 679‐14‐E06 or the non‐TG2‐specific BCR 693‐2‐F02 as human IgD are previously described. For B‐cell/T‐cell collaboration assays, we used A20 BCR transfectants also transduced to express HLA‐DQ2.5 [27]. Murine BW58α^–β^– cells were retrovirally transduced to express human CD4 as well as the celiac patient‐derived gluten‐specific TCR from a DQ2.5‐glia‐γ1‐reactive T‐cell clone (TCC 4.32) as previously described. The generation of TCR transfectants expressing DQ2.5‐glia‐α2‐reactive TCR (TCC 364.14) and DQ2.5‐glia‐ω2‐reactive TCR (clone 737.30) have been described previously.
The B‐cell/T‐cell collaboration assays were set up as previously described. […] The next day, IL‐2 concentration was measured in the culture supernatant by ELISA as previously described. The responsiveness of different TCR transfectants was assessed in the same way, but without the 30 min incubation with TG2, and using the synthetic deamidated peptides (D‐α‐gliadin 20‐mer, D‐ω‐gliadin 17‐mer, and D‐γ‐gliadin 21‐mer). […]

The test system of data set [2] is TG2-specific A20 cells expressing DQ2.5 and DQ2.5-glia-ω2 TCR transfectants. Kind of data set: Effect of primary amines on T-cell response to deamidated gluten peptide (off-target/toxicity control). In kind it is cell-based, Murine A20 B cells and BW58α–β– cells. Particulars: 30 min pre-incubation of A20 cells with amine, then D-ω-gliadin 34-mer and DQ2.5-glia-ω2 TCR transfectants; IL-2; Figure S6. How it is done: The B‐cell/T‐cell collaboration assays were set up as previously described. To compare the uptake and presentation of different gluten peptides to T cells, A20 cells (5 mill/mL) expressing the TG2‐specific BCR (679‐14‐E06) and HLA DQ2.5 were incubated with recombinant TG2 (final 3 µg/mL) and varying amounts of N‐α‐gliadin 20‐mer, N‐ω‐gliadin 19‐mer, or N‐γ‐gliadin 21‐mer in RPMI supplemented with 2 mM CaCl2. After a 30 min incubation at 37°C the cells were washed with 1% FCS/RPMI and resuspended in 5% FCS/RPMI to give a final 1.5 million cells/mL (150 000/well) followed by 2 h incubation at 37°C. Next, TCR‐transfectant cells specific for either DQ2.5‐glia‐α2, DQ2.5‐glia‐ω2, or DQ2.5‐glia‐γ1 were added (25 000/well), followed by overnight incubation at 37°C. The next day, IL‐2 concentration was measured in the culture supernatant by ELISA as previously described. The responsiveness of different TCR transfectants was assessed in the same way, but without the 30 min incubation with TG2, and using the synthetic deamidated peptides (D‐α‐gliadin 20‐mer, D‐ω‐gliadin 17‐mer, and D‐γ‐gliadin 21‐mer). […]
or T cells in our cellular assays. […] T-cell activation was assessed b y ELISA quant ification of IL-2 secreted into the cell culture medium. […]

Data set [3] concerns TCR-transfectant cells specific for DQ2.5-glia-ω2. Kind of data set: Inhibition by primary amines of activation of DQ2.5-glia-ω2-specific T cells by TG2-specific B cells, IL-2 ELISA. In kind it is cell-based. Particulars: for IC50: 5 µM N-ω-gliadin 34-mer, TG2, CaCl2, amine 0-1000 µM, IL-2 ELISA.
From the text: as §1
The B‐cell/T‐cell collaboration assays were set up as previously described. To compare the uptake and presentation of different gluten peptides to T cells, A20 cells (5 mill/mL) expressing the TG2‐specific BCR (679‐14‐E06) and HLA DQ2.5 were incubated with recombinant TG2 (final 3 µg/mL) and varying amounts of N‐α‐gliadin 20‐mer, N‐ω‐gliadin 19‐mer, or N‐γ‐gliadin 21‐mer in RPMI supplemented with 2 mM CaCl2. After a 30 min incubation at 37°C the cells were washed with 1% FCS/RPMI and resuspended in 5% FCS/RPMI to give a final 1.5 million cells/mL (150 000/well) followed by 2 h incubation at 37°C. Next, TCR‐transfectant cells specific for either DQ2.5‐glia‐α2, DQ2.5‐glia‐ω2, or DQ2.5‐glia‐γ1 were added (25 000/well), followed by overnight incubation at 37°C. The next day, IL‐2 concentration was measured in the culture supernatant by ELISA as previously described. The responsiveness of different TCR transfectants was assessed in the same way, but without the 30 min incubation with TG2, and using the synthetic deamidated peptides (D‐α‐gliadin 20‐mer, D‐ω‐gliadin 17‐mer, and D‐γ‐gliadin 21‐mer). To assess how TG2 secondary substrate affects peptide uptake and presentation to T cells, TG2‐specific A20 cells expressing DQ2.5 were incubated with TG2, CaCl2, 5 µM N‐ω‐gliadin 34‐mer, or 5 µM N‐α‐gliadin 33‐mer in the presence of primary amines at increasing concentrations (0‐1000 µM), before the addition of TCR‐transfectant cells specific for the DQ2.5‐glia‐α2 or DQ2.5‐glia‐ω2 epitopes. The dose‐response curve fitting to find IC50 was done using the “[Inhibitor] vs. response” equation in GraphPad Prism 8.3.0. To examine whether primary amines directly affect the B cells, TG2‐specific A20 cell expressing DQ2.5 were incubated with primary amines for 30 min and washed, before addition of 2 µM D‐ω‐gliadin 34‐mer, followed by incubation with DQ2.5‐glia‐ω2 TCR transfectants.
(An ELISA detects its analyte on a solid surface through an enzyme-linked reagent.)

Where [4] appears, read: DQ2.5-glia-ω2, replicate Figure S5A.
The mark [5] stands for this setting: DQ2.5-glia-ω2, replicate Figure S5B.
Where [6] appears, read: logIC50, DQ2.5-glia-ω2, Figure 5.
Where [7] appears, read: logIC50, DQ2.5-glia-ω2, replicate Figure S5A.
Setting [8] is: logIC50, DQ2.5-glia-ω2, replicate Figure S5B.

A word on the IC50: it is the concentration at which inhibition is half-maximal. Take `NCCCCCNC(=O)CCCC[C@@H]1SC[C@@H]2NC(=O)N[C@@H]21` [5-BP, 5‐biotinamido‐pentylamine]: the half-maximal inhibitory concentration (IC50) in data set [1] is 27 to 58 µM; in data set [3] (DQ2.5-glia-ω2, Figure 5), 60.7 µM; in data set [3] (DQ2.5-glia-ω2, mean), 27 µM; in data set [3] (setting [4]), 13.6 µM; in data set [3] (setting [5]), 6.79 µM. For the same molecule, in data set [2], the “toxic effect on B cells or T cells in cellular assays” value was “no toxic effect”. In addition, the logIC50 worked out at 1.78 in data set [3] (DQ2.5-glia-ω2, Figure 5); 1.25 in data set [3] (DQ2.5-glia-ω2, mean); 1.13 in data set [3] (setting [4]); 0.832 in data set [3] (setting [5]). The “log 95% CI lower limit” value in data set [3] (setting [6]) worked out at 1.52; in data set [3] (logIC50, DQ2.5-glia-ω2, mean) it was 1.23; in data set [3] (setting [7]) it was 0.940. For the same molecule, the “log 95% CI upper limit” value came out at 2.04 in data set [3] (setting [6]); 1.57 in data set [3] (logIC50, DQ2.5-glia-ω2, mean); 1.32 in data set [3] (setting [7]); 1.36 in data set [3] (setting [8]).

Regarding `NCCCNCCCCNCCCN` [spermine], the IC50 in data set [1] was 27 to 58 µM; in data set [3] (DQ2.5-glia-ω2, Figure 5), 55.1 µM; in data set [3] (DQ2.5-glia-ω2, mean), 27.5 µM; in data set [3] (setting [4]), 18.4 µM; in data set [3] (setting [5]), 9.13 µM. Besides, in data set [2], the “toxic effect on B cells or T cells in cellular assays” value is recorded as “no toxic effect”. Further, the logIC50 in data set [3] (DQ2.5-glia-ω2, Figure 5) amounted to 1.74; in data set [3] (DQ2.5-glia-ω2, mean), 1.32; in data set [3] (setting [4]), 1.26; in data set [3] (setting [5]) it was 0.960. Also, the “log 95% CI lower limit” value in data set [3] (setting [6]) was determined as 1.50; in data set [3] (logIC50, DQ2.5-glia-ω2, mean), 1.04; in data set [3] (setting [7]), 1.03; in data set [3] (setting [8]), 0.610. Besides, the “log 95% CI upper limit” value in data set [3] (setting [6]) turned out to be 1.99; in data set [3] (logIC50, DQ2.5-glia-ω2, mean), 1.58; in data set [3] (setting [7]), 1.50; in data set [3] (setting [8]) it was 1.26.
